{"source": "patent US20100233532A1", "about": "“Composition for battery” (TOYO INK MFG. CO., LTD., priority 2007, published 2010)"}
{"assay": "Solubility of dispersants in purified water", "assay_type": "physicochemical", "method": "Evaluations of solubility were carried out by evaluating dispersants having solubility in purified water of 0.02% or more as “O” (soluble) and those having solubility of less than 0.02% as “x” (insoluble)."}
{"smiles": "Cc1ccc(Nc2nc(Nc3ccccc3)nc(Nc3ccc4[nH]c(=O)[nH]c4c3)n2)cc1S(=O)(=O)O", "note": "[Dispersant A]", "Solubility in water": "Salt forming substance: None Solubility in water: ∘"}
{"smiles": "O=P(O)(O)c1ccc(Nc2nc(Nc3ccc4ccccc4c3)nc(Nc3ccc4ccccc4c3)n2)cc1", "note": "[Dispersant F]", "Solubility in water": "Salt forming substance: None Solubility in water: ∘"}
{"smiles": "CC1(C)CC(Nc2nc(Nc3ccc(P(=O)(O)O)cc3)nc(Nc3ccc4[nH]c(=O)[nH]c4c3)n2)CC(C)(CNc2nc(Nc3ccc(P(=O)(O)O)cc3)nc(Nc3ccc4[nH]c(=O)[nH]c4c3)n2)C1", "note": "(stereo not shown) [Dispersant G]", "Solubility in water": "Solubility in water: x (solubility of less than 0.02% as “x” (insoluble))"}
{"smiles": "CCn1c2ccccc2c2cc(Nc3nc(O)nc(Nc4ccc(O)c(C(=O)O)c4)n3)ccc21", "note": "[Dispersant H]", "Solubility in water": "Salt forming substance: None Solubility in water: ∘"}
{"smiles": "O=C1Cc2ccc(Nc3nc(Nc4ccc(C(=O)O)cc4)nc(Nc4ccc5[nH]c(=O)[nH]c5c4)n3)cc2C1", "note": "[Dispersant I]", "Solubility in water": "Solubility in water: x (solubility of less than 0.02% as “x” (insoluble))"}
{"smiles": "Cc1ccc2cccc(Nc3nc(Nc4ccc(C(=O)O)cc4)nc(Nc4ccc(C(=O)O)cc4)n3)c2n1", "note": "[Dispersant J]", "Solubility in water": "Solubility in water: x (solubility of less than 0.02% as “x” (insoluble))"}
{"smiles": "O=C(O)c1cc2ccccc2c(N=Nc2ccc([N+](=O)[O-])cc2)c1O", "note": "[Dispersant O]", "Solubility in water": "Salt forming substance: None Solubility in water: ∘"}
